Data on four compounds can be found in patent US20130345249A1, “Formulations for the prevention and treatment of Wolbachia-related disease” (priority 2011, published 2013).

SMILES strings stand for the structures.

The test system of experiment [1] is Wolbachia. Put plainly: Microscopy-based high-throughput screen in Wolbachia-infected Drosophila tissue culture cells. Format: cell-based. The following applies: 100 uM in media, 3 days incubation. Here is the method:
In collaboration with the microscope company Molecular Devices, we optimized journaling software that analyzes the level of cytoplasmic DAPI (Wolbachia) fluorescence per cell in all wells of the plate. […] In this pilot, compounds were added to Wolbachia-infected cells at a final concentration of 100 uM in media and allowed to incubate for 3 days. Cells were then fixed, stained, imaged, and analyzed by automated machinery.

A further experiment concerns Brugia malayi. Description: Brugia malayi drug feeding assay (worm mortality). Format: in vivo. The source says: Small molecules of interest found by the primary tissue culture screen must be tested in animal models to determine their relevance to Wolbachia in vivo. Because Wolbachia are vital endosymbionts of Brugia malayi worms that cause Elephantiasis, the next important step was to validate whether compounds found in the high-throughput screen could affect the viability of those worms. To assay this, we performed a pilot feeding assay by distributing Brugia malayi into 12-well plates containing tissue culture media and different compounds added to a final concentration of 100 uM. […] In this feeding assay, we observed that worms fed with pararosanaline pamoate ceased movement within 2 hours, whereas all other treatments took substantially longer to affect the worms (FIG. 3). Our preliminary dose-response tests of pararosanaline pamoate indicate that the lethal feeding dose lies between 25 uM and 10 uM.

The test system of experiment [2] is Wolbachia. Put plainly: Confocal imaging of Wolbachia in treated Brugia malayi worms. Format: in vivo.
The subject of experiment [3] is Wolbachia. Description: Wolbachia titer in ovarian tissues of fed D. melanogaster (confocal microscopy, image-based quantification). Format: in vivo, Wolbachia (in Drosophila melanogaster). Here is the method:
As the next validation step, it was important to determine whether the compounds found in our screen can cure a host of Wolbachia while also permitting host viability. To investigate this, we first performed a feeding assay using Wolbachia-infected Drosophila melanogaster flies. Flies were provided with fly food containing pararosanaline pamoate at concentrations of 100 uM or less, and viability was scored over time. […] To then determine whether the treatment affected the quantity of Wolbachia carried by the D. melanogaster host, we fed pararosaniline pamoate to Wolbachia-infected fruit flies for 3 days and analyzed Wolbachia titer in ovarian tissues. This was performed through use of confocal microscopy and image-based bacterial quantification software.

As for `COC(=O)[C@H]1[C@H]2C[C@H]3c4[nH]c5cc(OC)ccc5c4CCN3C[C@H]2C[C@@H](OC(=O)c2cc(OC)c(OC)c(OC)c2)[C@@H]1OC` [Isoreserpine], the “cytoplasmic DAPI (Wolbachia) fluorescence per cell / hit in tissue culture screen” value in the experiment with Wolbachia [1] is on record as “identified by the screening methods of the invention”.

With `N=C1C=CC(=C(c2ccc(N)cc2)c2ccc(N)cc2)C=C1` [Pararosaniline Pamoate], the “cytoplasmic DAPI (Wolbachia) fluorescence per cell / hit in tissue culture screen” value in the experiment with Wolbachia [1] is “identified by the screening methods of the invention”; in the experiment with Wolbachia [1] (listed as pararosanaline pamoate) it was “found in the pilot tissue culture screen”. Besides, the “time until worms ceased movement” value in the experiment on Brugia malayi (100 uM in tissue culture media, 12-well plates) was no more than 2 h. Moreover, the “worm viability after treatment (FIG. 3)” value in the experiment with Brugia malayi (drug feeding assay) was “Inviable”. Also, the “number of Wolbachia carried by host, worms killed by drug vs untreated worms” value in the experiment on Wolbachia [2] is “no visible difference”. Further, the “Wolbachia titer in Drosophila oocytes (FIG. 5)” value with Wolbachia [3] (average quantity within a single focal plane of oocytes) is listed as “reduced”. The “Wolbachia titer relative to control levels” value with Wolbachia [3] (fed for 3 days, ovarian tissues (oocytes), preliminary) stood at 60%.

For the compound `CC(C)(C)CC(C)(C)c1ccc(O)c(Cc2ccc(Cl)cc2Cl)c1` [Clofoctol], the “cytoplasmic DAPI (Wolbachia) fluorescence per cell / hit in tissue culture screen” value in the experiment on Wolbachia [1] is “identified by the screening methods of the invention”.

Take `Cc1ncc(CO)c(CO)c1O.Cl` [pyroxidine HCl]: the “cytoplasmic DAPI (Wolbachia) fluorescence per cell / hit in tissue culture screen” value in the experiment with Wolbachia [1] is given as “found in the pilot tissue culture screen”.
